In patent US9925166B2, “Methods of treating an overweight or obese subject” (Zafgen, Inc., priority 2008, dated 2018):
Where “and” joins values, the source holds several entries; their conditions need not be identical. Identical values can stand only once. Like-named read-outs stand apart in the source and are kept apart here.

Key:
[1] = Plasma concentration after intraduodenal administration (Example 8); format: in vivo, Sprague-Dawley rats; conditions: 30 mg/kg intraduodenal; for ZGN-201 Conc. in Rat Plasma, individual animals: listed as ZGN-201
Experimental: A study was undertaken to investigate absorption of fumagillin from the small intestine. Five male Sprague-Dawley rats were fasted, and were then catheterized into the duodenum, 1.5 centimeters below the stomach. The stomachs of these rats were tied off so administration would bypass the stomach of each rat. Rats were then infused with 30 mg/kg of fumagillin and an equal volume of Trypan blue (Invitrogen). To determine absorption of fumagillin into the small intestine, blood was collected from the jugular vein of each rat at time points of 0 min., 5 min. (graphically illustrated as 0.083), 15 min. (graphically illustrated as 0.25), 30 min. (graphically illustrated as 0.5), 2 hrs, and 8 hrs.

lean mice = assay: Oral and subcutaneous fumagillin in lean mice (Examples 3 and 4); format: in vivo, C57BLI6NTac mice
Excerpt: Mice were divided into two groups, a diet-induced obese group and a lean group. For the diet-induced obese group, fifteen week-old C57BL/6NTac mice, maintained prior to and during the study on a diet containing 60% fat on a kilocalorie basis, were further separated into six groups, eight animals per group. Average body weight of these diet-induced obese mice was 38 g at the start of the study. For the lean group, fifteen week-old C57BLI6NTac mice, maintained on a diet containing 4.3% by weight fat prior to and during the study, were further separated into two groups, eight animals per group. Average body weight of these lean mice was 28 g at the start of the study.
Fumagillin was administered to three of the diet-induced obese mice groups by oral gavage as a solution in 10% DMSO, at doses of 0.1 mg/kg/day, 0.3 mg/kg/day, and 1 mg/kg/day respectively. A fourth diet-induced obese mice group received the 10% DMSO vehicle only by oral gavage. A group of lean mice was administered fumagillin by oral gavage as a solution in 10% DMSO at a dose of 1 mg/kg/day. Treatments were administered daily for 11 days.
A study was undertaken to analyze whether oral administration compared to subcutaneous administration of fumagillin affected weight loss in diet-induced obese mice. Mice were divided into two groups, a diet-induced obese group and a lean group. […]

MetAP-2 = molecular target: T1, MetAP-2 (Mus musculus, UniProt O08663); assay: ELISA assay of MetAP-2 binding (free MetAP-2) in adipose tissue lysates of dosed diet-induced obese mice; conditions: fumagillin orally 3 mg/kg or 10 mg/kg; diet-induced obese mice; FIG. 1
T1 construct: from tissue; host or cells: adipose tissue of diet-induced obese mice
T1 sequence (O08663 whole entry): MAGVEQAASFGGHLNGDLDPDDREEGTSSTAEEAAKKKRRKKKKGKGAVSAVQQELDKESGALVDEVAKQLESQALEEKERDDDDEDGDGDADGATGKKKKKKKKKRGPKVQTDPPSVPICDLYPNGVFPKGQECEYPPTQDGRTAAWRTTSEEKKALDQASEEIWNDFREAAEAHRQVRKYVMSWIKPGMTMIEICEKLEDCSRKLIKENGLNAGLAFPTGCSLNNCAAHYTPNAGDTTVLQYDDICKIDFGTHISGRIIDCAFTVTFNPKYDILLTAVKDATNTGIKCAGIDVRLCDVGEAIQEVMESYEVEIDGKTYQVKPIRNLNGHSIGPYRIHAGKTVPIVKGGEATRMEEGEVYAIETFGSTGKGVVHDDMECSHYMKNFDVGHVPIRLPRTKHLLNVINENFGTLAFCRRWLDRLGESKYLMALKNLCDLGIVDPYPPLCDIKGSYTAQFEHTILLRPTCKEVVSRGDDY
Experimental: Diet-induced obese mice were orally (p.o.) administered fumagillin (3 mg/kg or 10 mg/kg; Medivet), subcutaneously administered (s.c.) TNP-470 (1 mg/kg, 3 mg/kg, 10 mg/kg, or 30 mg/kg; synthesized by standard semi-synthetic processes as described in European Patent EP 0 357 061), or administered a solution of 10% dimethyl sulfoxide (DMSO; control; Sigma-Aldrich). Mice were sacrificed and adipose tissue samples were obtained.
An ELISA assay of MetAP-2 binding was conducted with tissue lysates prepared from the adipose tissue samples. The MetAP-2 ELISA is a quantitative assay to determine the amount of free MetAP-2 in tissue or cell lysates, i.e., MetAP-2 not covalently bound to fumagillin or TNP-470. The assay takes advantage of the fact that biotinylated fumagillin can bind to the catalytic site of the MetAP-2 enzyme only if this site has not already been derivatized by fumagillin or TNP-470. The biotinylated MetAP-2-inhibitor complex was captured on a streptavidin-coated plate and detected with a rabbit anti-MetAP-2 antibody (Zymed Laboratories Inc.). Horseradish peroxidase-conjugated anti-rabbit immunoglobulin G (IgG) was added to detect the MetAP-2 antibody immobilized to the streptavidin-coated plate with its covalently bound biotinylated fumagillin. Tetramethylbenzidine (TMB) substrate was added and the reaction was stopped by addition of sulfuric acid. Analysis was performed by determining absorption at 450 nm. Human recombinant MetAP-2 (R&D Systems), pre-bound to biotinylated fumagillin, was used to generate a standard curve.

[2] = mouse, 33 mg/kg/day; Ingbar et al.; cited from earlier work
blood cells = assay: Complete blood analysis (CBC) after oral fumagillin in lean rats (Example 9); format: in vivo, Sprague-Dawley rats; conditions: for lymphocyte count / neutrophil count / white blood cell count: 3 mg/kg oral gavage on day 3 and day 9
Experimental: Male lean Sprague-Dawley rats were divided into two groups, ten rats per group. One group of rats received fumagillin by oral gavage as a solution in 10% DMSO, at dose of 3 mg/kg. Administration of fumagillin to this group of rats was performed on day 3 and day 9 of the study. The other group of rats was administered by oral gavage a solution of 10% DMSO/90% water (vehicle-only). Administration of vehicle to this group of rats was performed on day 3 and day 9 of the study. Blood samples were collected daily for complete blood analysis (CBC).

With `CO[C@@H]1[C@H](OC(=O)/C=C/C=C/C=C/C=C/C(=O)O)CC[C@]2(CO2)[C@H]1[C@@]1(C)O[C@@H]1CC=C(C)C` [fumagillin] the “ZGN-201 Conc. in Rat Plasma, individual animals” value (shortened to “ZGN-201 Conc. in Rat Plasma”) ([1]; male rats 1, 3, 4, 5, time point 0 hr) was “BQL (BQL: 1 ng/mL)”, the “ZGN-201 Conc. in Rat Plasma” value ([1]; male rats 1, 3, 4, 5, time point 0.083 hr) was 30286.5 ng/mL and 30532.1 ng/mL and 31057 ng/mL and the “ZGN-201 Conc. in Rat Plasma” value ([1]; male rats 1, 3, 4, 5, time point 0.25 hr) was 9275.7 ng/mL and 9903.7 ng/mL and 13584.2 ng/mL. For the same compound, the “ZGN-201 Conc. in Rat Plasma” value ([1]; male rats 1, 3, 4, 5, time point 0.5 hr) was 1104.6 ng/mL and 2295 ng/mL and 1109.8 ng/mL and 1225.1 ng/mL, the “ZGN-201 Conc. in Rat Plasma” value ([1]; male rats 1, 3, 4, 5, time point 2 hr) was 95 ng/mL and 66.5 ng/mL and 79.3 ng/mL and 27.5 ng/mL and the “ZGN-201 Conc. in Rat Plasma” value ([1]; male rats 1, 3, 4, 5, time point 8 hr) was 9 ng/mL and 6.9 ng/mL and 6.8 ng/mL. The “absorption profile compared to absorption through the stomach” value ([1]; rats) was “large absorption profile in the small intestine”, the concentration at 0 hr ([1]; male, Sprague-Dawley, rat, plasma, other: intraduodenal, 30 mg/kg, male rats 1, 3, 4, 5, time point 0 hr, read-out: ZGN-201 Conc. in Rat Plasma, individual animals) was 1 ng/mL and the concentration at 0.083 hr ([1]; male, Sprague-Dawley, rat, plasma, other: intraduodenal, 30 mg/kg, male rats 1, 3, 4, 5, time point 0.083 hr, read-out: ZGN-201 Conc. in Rat Plasma, individual animals) was 31400 ng/mL. It also gave a concentration at 0.25 hr ([1]; male, Sprague-Dawley, rat, plasma, other: intraduodenal, 30 mg/kg, male rats 1, 3, 4, 5, time point 0.25 hr, read-out: ZGN-201 Conc. in Rat Plasma, individual animals) of 7710 ng/mL, a concentration at 8 hr ([1]; male, Sprague-Dawley, rat, plasma, other: intraduodenal, 30 mg/kg, male rats 1, 3, 4, 5, time point 8 hr, read-out: ZGN-201 Conc. in Rat Plasma, individual animals) of 11.9 ng/mL and a concentration at 0.083 hr ([1]; male, Sprague-Dawley, rat, plasma, other: intraduodenal, 30 mg/kg, male rats, time point 0.083 hr, read-out: ZGN-201 Conc. in Rat Plasma, Mean) of 25100 ng/mL. It also gave a concentration at 0.25 hr ([1]; male, Sprague-Dawley, rat, plasma, other: intraduodenal, 30 mg/kg, male rats, time point 0.25 hr, read-out: ZGN-201 Conc. in Rat Plasma, Mean) of 9200 ng/mL, a concentration at 0.5 hr ([1]; male, Sprague-Dawley, rat, plasma, other: intraduodenal, 30 mg/kg, male rats, time point 0.5 hr, read-out: ZGN-201 Conc. in Rat Plasma, Mean) of 1730 ng/mL and a concentration at 2 hr ([1]; male, Sprague-Dawley, rat, plasma, other: intraduodenal, 30 mg/kg, male rats, time point 2 hr, read-out: ZGN-201 Conc. in Rat Plasma, Mean) of 506 ng/mL. The concentration at 8 hr ([1]; male, Sprague-Dawley, rat, plasma, other: intraduodenal, 30 mg/kg, male rats, time point 8 hr, read-out: ZGN-201 Conc. in Rat Plasma, Mean) was 20 ng/mL, the concentration at 5 min ([1]; male, Sprague-Dawley, rat, plasma, other: intraduodenal, 30 mg/kg, rats, 5 min. from administration (time point 0.083), read-out: amount of absorption by the small intestine) was 3000 ng/mL and the weight change (lean mice; 1 mg/kg/day oral gavage) was “no weight change”. The weight loss (lean mice; 1 mg/kg/day subcutaneous) was “no weight loss”, the “binding to MetAP-2 in adipose tissue” value (MetAP-2) was “binds MetAP-2 in adipose tissue” and the “side-effect of administration (wasting)” value [2] was “severe weight loss”. The lymphocyte count (blood cells; day 3) was “approximately 4000 lymphocytes/4”, the neutrophil count (blood cells; day 3) was “approximately 650 neutrophils/4” and the “white blood cell count” value (blood cells; day 3) was “approximately 5000 white blood cells/4”. The lymphocyte count (blood cells; day 9) was “approximately 3900 lymphocytes/4”, the neutrophil count (blood cells; day 9) was “approximately 1100 neutrophils/4” and the “white blood cell count” value (blood cells; day 9) was “approximately 5200 white blood cells/4”. For the same compound, the “development of a blood disorder” value (blood cells; 3 mg/kg oral gavage, rats) was “do not result in development of a blood disorder” and the “variation vs vehicle-only rats in white blood cell, lymphocyte and neutrophil count” value (blood cells; 3 mg/kg oral gavage, statistical analysis) was “not statistically significant”.
